Measured values taken from US20090075898A1, “Complement C3A Derived Peptides and Uses Thereof” (Yeda Research and Development Co. Ltd. at the Weizmann …, priority 2005, published 2009).
Square brackets hold non-standard residues; d marks the D form. Ends that are not written are not given here.

Assays:
Dok-1 = Dok-1 phosphorylation in RBL-2H3 cells; type: cell-based, rat
Protocol: (§1) The inhibitory action of the peptide C3a31 on the FcεRI coupling cascade was also investigated using the rat mucosal-type RBL-2H3 line. Results of these experiments have shown that peptide C3a31 inhibited the phosphorylation of the protein tyrosine kinase Lyn and of the FcεRI β-chain. The inhibition on Lyn phosphorylation was observed after 1 min, and that on PAG phosphorylation (PAG has an important role in the regulation of src family kinases) after 3 min. However, C3a31 was also shown to enhance Lyn phosphorylation after 3 min. In addition, C3a31 inhibited Dok-1 phosphorylation after 5 min, but had no effect after 8 min.

RBL-2H3 cells = details: for Inhibition of IgE-mediated β-hexoseaminidase secretion from RBL-2H3 (FIG. 1B): 250 μg of peptide; for Inhibition of IgE-mediated β-hexosaminidase release from RBL-2H3 cells: peptides 5 min prior to suboptimal (5 ng/ml) antigen dose
[1] = test system: ovalbumin-sensitized asthmatic mice; experiment: Murine asthma model, cell distribution in broncho alveolar lavage; type: in vivo, mouse
Protocol: (§2) Inhibitory effect of the peptides on pulmonary functions. Mice (Balb/c, female, 8 weeks old) were first sensitized by ip injection of the antigen (Ag) ovalbumin. Thereafter, the mice were challenged 4 times by aerosol inhalation of the same Ag dispersed by nebulizer in a plexiglass chamber for about 20 min at one-week intervals. On day 28, the mice were first treated with an aerosol of the tested peptides dissolved in 0.1 M NaHCO3 and dispersed as above. As a result, the aerosol was inhaled by the animals for about 10 to 20 minutes. After inhalation, the animals were immediately challenged by inhalation (as above) of the sensitizing antigen (5% OVA in PBS) for 20 min. At the end of this treatment, the mice were immediately tested for pulmonary functions in conscious, freely moving state using plethysmography.
The degree of bronchial constriction was monitored by the enhanced pause and its relation to airway resistance, impedance and intrapleural pressure in the mouse. Bronchoalveolar lavage (BAL) samples were obtained from these mice by cannulating the trachea, injecting 0.8 ml ice-cold saline (×2) and subsequently aspirating the BAL fluid. Following these tests, mice were sacrificed using general anesthesia with brevital (1 mg/ml). Their chests wall were opened, blood withdrawn and lungs were perfused with cold PBS and examined for cytology and histology.
Table 3 provides results of analysis of the cells present in bronchi alveolar lavage (BAL) of mice treated by the same protocols as those subjected to analysis of lung function.

PLCγ-2 = PLCγ-2 phosphorylation in RBL-2H3 cells; type: cell-based, rat
[2] = test system: ovalbumin-sensitized asthmatic mice; experiment: Murine asthma model, lung function by plethysmography; type: in vivo, mouse; details: peptide aerosol prior to final ovalbumin challenge
Protocol: as §2
The degree of bronchial constriction was monitored by the enhanced pause and its relation to airway resistance, impedance and intrapleural pressure in the mouse. Bronchoalveolar lavage (BAL) samples were obtained from these mice by cannulating the trachea, injecting 0.8 ml ice-cold saline (×2) and subsequently aspirating the BAL fluid. Following these tests, mice were sacrificed using general anesthesia with brevital (1 mg/ml). Their chests wall were opened, blood withdrawn and lungs were perfused with cold PBS and examined for cytology and histology. […]

FcεRI β chain = experiment: Phosphorylation of FcεRI β chain in RBL-2H3 cells, Western blot; type: cell-based, rat; details: cells stimulated by antigen in the presence of peptide
Protocol: (§3) Immunoprecipitation and Western blot. Mast cells were seeded in 10 cm Petri dishes (7×10^6 cells/dish) and saturated with A2IgE at 37° C. in DMEM overnight. After washing they were treated with peptides for 5 min and FcεRI was clustered by incubating with 5 ng/ml DNP11-BSA at 37° C. for 2 min. The reaction was terminated by 500 μl lysis buffer (1% Triton X-100, 50 mM HEPES, 100 mM NaF, 10 mM EDTA, 2 mM sodium orthovanadate, 10% glycerol, 10 mM sodium pyrophosphate, protease inhibitor cocktail 1:200, pH 7.4) per dish. The cells were scraped and the protein content of the post nuclear supernatants was adjusted to equal values using the Bradford-assay prior to precipitation by PT-66 phosphotyrosine specific antibody coated beads (10 μl beads per sample). The proteins were eluted by sample buffer containing 2-mercaptoethanol and were separated by SDS-PAGE, electrotransferred onto a nitrocellulose membrane and developed using the indicated antibodies and detected by ECL.
(§4) These are known to include phosphorylation by the src-family PTK Lyn of the ITAMs of the FcεRI β and γ subunits.
(§5) The inhibitory action of the peptide C3a31 on the FcεRI coupling cascade was also investigated using the rat mucosal-type RBL-2H3 line.

[3] = test system: passive systemic anaphylaxis in mice; experiment: Passive systemic anaphylaxis, blood histamine; type: in vivo, mouse; details: peptide solution onto the nostrils before DNP-HSA antigen
Protocol: Passive Systemic Anaphylaxis. Mice (Balb/c) were anesthetized with 300-400 μl of avertin and injected with 3 μg of the IgE class DNP-specific monoclonal antibody (SPE-7, Sigma) in 200 μl PBS by retroorbital injection (or tail vein). After 24 hours, mice were anesthetized with 300-400 μl of avertin and exposed to ca. 100 μl of the indicated peptide (inhibitory, SEQ ID NO:11, a control reversed peptide of SEQ ID NO:35 or peptide GAKDGNEYI-COOH of SEQ ID NO:36) solution in PBS positioned onto the nostrils. This was followed by injection of the antigen (DNP-derivatized human serum albumin, HSA, 100 μg in 200 μl of PBS) or PBS only, by retroorbital injection (or tail vein). After 1.5 minutes, mice were sacrificed by cervical dislocation and cardiac puncture performed. Heparin-rinsed syringes were now used for aspiration. Blood samples were spun at 4 degrees for 10 minutes at 8000 rpm in tabletop. Histamine was assayed by the Immunotech protocol for competitive ALP assay.
The effect of C3a derived peptides on passive systemic anaphylaxis in mice was examined. […] The reverse peptide denoted C3a55 amide was ineffective (FIG. 5). A control group was treated with a non-relevant peptide having the amino acid sequence GAKDGNEYI-COOH of SEQ ID NO:36 prior to the injection of the antigen DNP-HSA.

Lyn = experiment: Phosphorylation of Lyn in RBL-2H3 cells, Western blot; type: cell-based, rat; details: for Phosphorylation of Lyn: cells stimulated by antigen in the presence of peptide
Protocol: as §3, with “After washing they were treated with peptides for 5 min and FcεRI was clustered by incubating with 5 ng/ml DNP11-BSA at 37° C. for 2 min.” left out
as §4, §5

PAG = PAG phosphorylation in RBL-2H3 cells; type: cell-based, rat
Protocol: as §1

[4] = test system: bone marrow derived mast cells (BMMC); experiment: Secretory response (β-hexosaminidase release) of bone marrow derived mast cells; type: cell-based, mouse
Protocol: Cells. Bone marrow derived mast cells (BMMC) were prepared from Balb/c mice as described by Nagao et al. (Science 212: 333-335, 1981). After 3 weeks, an approximately 95% pure mast cell population was obtained, showing high expression of FcεRI and stem cell factor receptor (c-kit), as measured by flow cytometry.
Secretory response of mast cells.
Similar experiments were carried out using bone-marrow derived mast cells (BMMC). […] The control peptide of the sequence DVSNYITR had no effect on either system.

For “Ser-Asp-Ser-Ser-Asn-Tyr-Ile-Thr-Arg-NH2 (SDSSNYITR-NH2) [C3a31]”, the “Dok-1 phosphorylation after 5 min” value (Dok-1; after 5 min) was “inhibited”, the “Dok-1 phosphorylation after 8 min” value (Dok-1; after 8 min) was “had no effect” and the “Inhibition of IgE-mediated β-hexoseaminidase secretion from RBL-2H3 (FIG. 1B)” value (RBL-2H3 cells) was “found to inhibit”. The “Eosinophils in BAL” value ([1]; OVA + peptide aerosol) was 4%, the “Lymphocutes in BAL” value ([1]; OVA + peptide aerosol) was 81% and the “Macrophages in BAL” value ([1]; OVA + peptide aerosol) was 1%. The “Mast Cells in BAL” value ([1]; OVA + peptide aerosol) was 4%, the “Neutrophils in BAL” value ([1]; OVA + peptide aerosol) was 13% and the “Type of cells detected in the BAL” value ([1]; peptide aerosol treatment) was “markedly affected”. For the same substance, the “Phosphorylation of PLCγ-2” value (PLCγ-2) was “inhibited”, the “Antigen-induced symptoms (lung airway resistance) in asthma model” value [2] was “effective in reducing” and the “Phosphorylation of the FcεRI β chain” value (FcεRI β chain) was “inhibited”. For the same substance, the “Symptoms of passive systemic anaphylaxis, histamine levels in mice blood” value [3] was “found to reduce”, the “Lyn phosphorylation after 1 min” value (Lyn; after 1 min) was “inhibition” and the “Lyn phosphorylation after 3 min” value (Lyn; after 3 min) was “enhance”. The “Phosphorylation of Lyn” value (Lyn) was “inhibited” and the “PAG phosphorylation after 3 min” value (PAG) was “inhibition”.
In the case of “CCNYG (derived from human sequence) [C3a13]”, the “Inhibition of IgE-mediated β-hexosaminidase release from RBL-2H3 cells” value (“Inhibition … from RBL-2H3 cells” for short) (RBL-2H3 cells) is reported as “shown to inhibit”.
For DSSNYIR [C3a11], the “Inhibition … from RBL-2H3 cells” value (RBL-2H3 cells) was “shown to inhibit”.
In the case of “D-Ala-D-Ala-Asp-Ser-Ser-Asn-Tyr-Ile-Thr-Arg-NH2 ([dA][dA]DSSNYITR-NH2; N-terminus assumed; SMILES CC[C@H](C)[C@H](NC(=O)[C@H](Cc1ccc(O)cc1)NC(=O)[C@H](CC(N)=O)NC(=O)[C@H](CO)NC(=O)[C@H](CO)NC(=O)[C@H](CC(=O)O)NC(=O)[C@@H](C)NC(=O)[C@@H](C)N)C(=O)N[C@H](C(=O)N[C@@H](CCCNC(=N)N)C(N)=O)[C@@H](C)O) [C3a32]”, the “Inhibition of IgE-mediated β-hexoseaminidase secretion from RBL-2H3 (FIG. 1B)” value (RBL-2H3 cells) is reported as “found to inhibit”.
With “RTIYNSSDS (RTIYNSSDS-NH2) [C3a55, reference compound]” the “Symptoms of passive systemic anaphylaxis, histamine levels in mice blood” value [3] was “ineffective”.
For “DVSNYITR [Control peptide, reference compound]”, the “Inhibition … from RBL-2H3 cells” value (RBL-2H3 cells) was “had no effect”, the “Inhibitory effect (IC50) on the IgE-mediated degranulation of RBL-2H3” value (RBL-2H3 cells; suboptimal antigen-dose) was “No effect” and the “Phosphorylation of Lyn” value (Lyn) was “had no effect”. The “Inhibition of IgE-mediated secretory response of BMMC” value [4] was “had no effect” and the “Inhibitory effect (IC50) on the IgE-mediated degranulation of BMMC” value ([4]; suboptimal antigen-dose) was “No effect”.
